US20250179028A1, “ACRYLAMIDE COMPOUNDS” (NRG THERAPEUTICS LTD, priority 2022, published 2025)
Marks after values point to notes of the source that are not given here.

Assays:
[1] = Microsomal clearance assay; assay type: in vitro ADME; settings: rat liver microsomes; average value from two experiments
Method: The microsomal stability of test compounds was evaluated using rat liver microsomes (BiolVT) with and without the cofactors nicotinamide adenine dinucleotide phosphate (NADPH) and undine-diphosphate-glucuronic acid (UDPGA). Reactions were performed in a final volume of 250 μl pre-warmed (37° C.) 100 mM phosphate buffer containing 5 mM MgCl2, 0.025 mg/ml alamethicin, and 0.5 mg/ml rat liver microsomes. NADPH and UDPGA were included at 1 mM and 2 mM respectively, where appropriate. Reactions were started with the addition of 1 μM (final concentration) test compound. Verapamil was used as the positive control. Solutions were incubated in a water bath at 37° C. and aliquots collected at 0.5, 5, 15, 30 and 60 min. Reactions were stopped by the addition of 5 volumes of cold acetonitrile with internal standards (200 nM caffeine and 100 nM tolbutamide). Samples were centrifuged at 3220 g for 40 min. An aliquot of supernatant was diluted 1:1 In ultra-pure H2O, then used for LC-MS/MS analysis. Peak areas were determined from extracted ion chromatograms. The slope value, k, was determined by linear regression of the natural logarithm of the remaining percentage of the parent drug vs. incubation time curve. The in vitro half-life (in vitro t½) was determined from the slope value: in vitro t½=0.693/k. Conversion of the in vitro t½ (min) into the in vitro intrinsic clearance (in vitro CLint, in μL/min/mg protein) was done using the following equation (mean of duplicate determinations): […]

[2] = Hepatocyte clearance assay, rat; assay type: in vitro ADME; settings: cryopreserved primary rat hepatocytes, average value from two experiments, read-out: Rat heps Clint
Outline: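 Cryopreserved rat or human hepatocytes, 0.5×10^6 viable cells/mL in L-15 medium, incubated with compound at 37 °C; samples to 120 min, duplicate. Parent loss by LC/MS/MS; t½ = 0.693/k from ln-linear regression, converted to CLint in μL/min/1×10^6 cells.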

mPTP = mPTP activity (Ca2+ retention) assay in isolated rat liver mitochondria; assay type: biochemical; settings: isolated rat liver mitochondria
Outline: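 Freshly isolated female Sprague Dawley rat liver mitochondria were energised with succinate and rotenone in pH 7.4 buffer with Fluo5N, then pre-incubated 10 min at RT with compound (30 μM to 1 nM final) before a 75 μM CaCl2 bolus. The IC50 used 10-min fluorescence, normalised to DMSO and 5 μM cyclosporin A.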

[3] = average value from multiple experiments (n ≥ 2)

## Cc1c(F)cccc1NC(=O)/C=C/c1ccc2cn[nH]c2c1 [Comparative Example 1, (E)-N-(2-methyl-3-fluorophenyl)-3-(1H-indazol-6-yl)acrylamide, reference compound]
[1]
  microsomal CLint at 1 µM: 43 µL/min/mg
[2]
  hepatocyte CLint at 1 µM: 89 µL/min/1e6 cells
mPTP; average value from a larger number of experiments
  mPTP Rat liver pIC50: 7.8***
mPTP; [3]
  mPTP Rat liver pIC50: 8.0

## Cc1c(F)cccc1NC(=O)/C=C/c1ccc2c(c1F)NC(=O)C2 [Example 5, (E)-N-(3-fluoro-2-methylphenyl)-3-(7-fluoro-2-oxoindolin-6-yl)acrylamide]
[1]
  microsomal CLint at 1 µM: 17 µL/min/mg
[2]
  hepatocyte CLint at 1 µM: 27 µL/min/1e6 cells
mPTP; [3]
  mPTP Rat liver pIC50: 6.7

## Cc1c(F)cccc1NC(=O)/C=C/c1ccc2oc(=O)[nH]c2c1 [Example 6, (E)-N-(3-fluoro-2-methylphenyl)-3-(2-oxo-2,3-dihydrobenzo[d]oxazol-5-yl)acrylamide]
[1]
  microsomal CLint at 1 µM: 17 µL/min/mg
[2]
  hepatocyte CLint at 1 µM: 53.3 µL/min/1e6 cells
mPTP; [3]
  mPTP Rat liver pIC50: 6.8

## Cc1c(F)cccc1NC(=O)/C=C/c1ccc2c(c1)[nH]c(=O)n2C [Example 7, (E)-N-(3-fluoro-2-methylphenyl)-3-(1-methyl-2-oxo-2,3-dihydro-1H-benzo[d]imidazol-5-yl)acrylamide]
[1]
  microsomal CLint at 1 µM: 6.5 µL/min/mg
[2]
  hepatocyte CLint at 1 µM: 27 µL/min/1e6 cells
mPTP; [3]
  mPTP Rat liver pIC50: 6.8

## Cc1c(F)cccc1NC(=O)/C=C/c1ccc2c(c1)NC(=O)C2C (stereo not drawn) [Example 8, (E)-N-(3-fluoro-2-methylphenyl)-3-(3-methyl-2-oxoindolin-6-yl)acrylamide]
[1]
  microsomal CLint at 1 µM: 13 µL/min/mg
[2]
  hepatocyte CLint at 1 µM: 46 µL/min/1e6 cells
mPTP; [3]
  mPTP Rat liver pIC50: 5.9

## Cc1c(F)cccc1NC(=O)/C=C/c1ccc2c(c1)NC(=O)C2 [Example 10, (E)-N-(3-fluoro-2-methylphenyl)-3-(2-oxoindolin-6-yl)acrylamide]
[1]
  microsomal CLint at 1 µM: 13 µL/min/mg
[2]
  hepatocyte CLint at 1 µM: 21.1 µL/min/1e6 cells
mPTP; [3]
  mPTP Rat liver pIC50: 6.7

## Cc1cccc(C)c1NC(=O)/C=C/c1ccc2c(c1)NC(=O)C2 [Example 19, (E)-N-(2,6-dimethylphenyl)-3-(2-oxoindolin-6-yl)acrylamide]
[1]
  microsomal CLint at 1 µM: 20 µL/min/mg
[2]
  hepatocyte CLint at 1 µM: 9.1 µL/min/1e6 cells
mPTP; [3]
  mPTP Rat liver pIC50: 6.2

## CCn1c(=O)[nH]c2cc(/C=C/C(=O)Nc3cccc(F)c3C)ccc21 [Example 22, (E)-3-(1-ethyl-2-oxo-2,3-dihydro-1H-benzo[d]imidazol-5-yl)-N-(3-fluoro-2-methylphenyl)acrylamide]
[1]
  microsomal CLint at 1 µM: 9.85 µL/min/mg
[2]
  hepatocyte CLint at 1 µM: 26.1 µL/min/1e6 cells
mPTP; [3]
  mPTP Rat liver pIC50: 6.6

## Cc1c(F)cccc1NC(=O)/C=C/c1ccc2c(c1)[nH]c(=O)n2C1CC1 [Example 23, (E)-3-(1-cyclopropyl-2-oxo-2,3-dihydro-1H-benzo[d]imidazol-5-yl)-N-(3-fluoro-2-methylphenyl)acrylamide]
[1]
  microsomal CLint at 1 µM: 9.8 µL/min/mg
[2]
  hepatocyte CLint at 1 µM: 35.7 µL/min/1e6 cells
mPTP; [3]
  mPTP Rat liver pIC50: 6.6

## Cc1n[nH]c2cc(/C=C/C(=O)NC3CCc4ccccc43)ccc12 (stereo not drawn) [Example 25, (E)-N-(2,3-dihydro-1H-inden-1-yl)-3-(3-methyl-1H-indazol-6-yl)acrylamide]
[1]
  microsomal CLint at 1 µM: 52.9 µL/min/mg
[2]
  hepatocyte CLint at 1 µM: 36.3 µL/min/1e6 cells
mPTP; [3]
  mPTP Rat liver pIC50: 6.9

## Cc1ccc(F)c(C)c1NC(=O)/C=C/c1ccc2c(c1)[nH]c(=O)n2C [Example 30, (E)-N-(3-fluoro-2,6-dimethylphenyl)-3-(1-methyl-2-oxo-2,3-dihydro-1H-benzo[d]imidazol-5-yl)acrylamide]
[2]
  hepatocyte CLint at 1 µM: 12.1 µL/min/1e6 cells
mPTP; [3]
  mPTP Rat liver pIC50: 7.4

## Cc1c(F)cccc1NC(=O)/C(F)=C/c1ccc2c(c1)NC(=O)C2 [Example 47, (Z)-2-fluoro-N-(3-fluoro-2-methylphenyl)-3-(2-oxoindolin-6-yl)acrylamide]
[1]
  microsomal CLint at 1 µM: 36.8 µL/min/mg
mPTP; [3]
  mPTP Rat liver pIC50: 5.9

## CO[C@H]1Cc2ccccc2[C@@H]1NC(=O)/C=C/c1ccc2c(C)n[nH]c2c1 [Example 54, (E)-N-((1S,2S)-2-methoxy-2,3-dihydro-1H-inden-1-yl)-3-(3-methyl-1H-indazol-6-yl)acrylamide]
[2]
  hepatocyte CLint at 1 µM: 39.4 µL/min/1e6 cells
mPTP; [3]
  mPTP Rat liver pIC50: 7.6

## CO[C@H]1Cc2ccccc2[C@@H]1NC(=O)/C=C/c1ccc2c(F)n[nH]c2c1 [Example 73, (E)-3-(3-fluoro-1H-indazol-6-yl)-N-((1S,2S)-2-methoxy-2,3-dihydro-1H-Inden-1-yl)acrylamide]
[2]
  hepatocyte CLint at 1 µM: 73.5 µL/min/1e6 cells
mPTP; [3]
  mPTP Rat liver pIC50: 8.1
